Where two headings read alike, the source gives them in different places.
B1: E. coli RBP: Escherichia coli ribose binding protein (protein, UniProt P02925 26-296, looked up)
Ribose import binding protein …: KDTIALVVSTLNNPFFVSLKDGAQKEADKLGYNLVVLDSQNNPAKELANVQDLTVRGTKILLINPTDSDAVGNAVKMANQANIPVITLDRQATKGEVVSHIASDNVLGGKIAGDYIAKKAGEGAKVIELQGIAGTSAARERGEGFQQAVAAHKFNVLASQPADFDRIKGLNVMQNLLTAHPDVQAVFAQNDEMALGALRALQTAGKSDVMVVGFDGTPDGEKAVNDGKLAATIAQLPDQIGAKGVETADKVLKGEKVQAKYPVDLKLVVKQ

Tests used:
[1] = molecular target: T1, AFF186 (Caldanaerobacter subterraneus, UniProt Q8RD41, C137S/D254S/INS221C/L167D); assay: Equilibrium fluorescence; type: binding
[2] = molecular target: N′186 (Caldanaerobacter subterraneus, UniProt Q8RD41, C137S/L167D); type: binding; conditions: SD, n = 3
[3] = molecular target: T2, AFF210 (Caldanaerobacter subterraneus, UniProt Q8RD41, C137S/D254S/INS245C/L167D); assay: Equilibrium fluorescence; type: binding
[4] = molecular target: T2, AFF210; type: binding; conditions: SD, n = 3
[5] = molecular target: T3, AFF70 (Caldanaerobacter subterraneus, UniProt Q8RD41, C137S/F53A/F54A/INS105C/L167D); type: binding; conditions: SD, n = 3
[6] = molecular target: N′70 (Caldanaerobacter subterraneus, UniProt Q8RD41, C137S/L167D); type: binding; conditions: SD, n = 3
[7] = molecular target: T1, AFF186; type: binding; conditions: SD, n = 3
[8] = molecular target: T3, AFF70; assay: Equilibrium fluorescence; type: binding
[9] = molecular target: N′210 (Caldanaerobacter subterraneus, UniProt Q8RD41, C137S/L167D); type: binding; conditions: SD, n = 3
[10] = molecular target: N′60 (Caldanaerobacter subterraneus, UniProt Q8RD41, C137S/L167D); type: binding; conditions: SD, n = 3
[11] = Thermal denaturation monitored by circular dichroism; type: physicochemical; conditions: E. coli RBP and its permutants, apo forms, Figure S7

Molecule | Kd [1] [µM] | Kd [2] [nM] | Kd [3] [µM] | Kd [4] [nM] | Kd [5] [nM] | Kd [6] [nM] | Kd [7] [nM] | Kd [8] [µM] | Kd [9] [nM] | Kd [10] [nM] | Tm [11] [°C]
OC1OC[C@@H](O)[C@@H](O)[C@H]1O (stereo partly drawn) [ribose, D-ribose] | 12.3 | 38.1 ± 0.4 | 4.2 | 26.1 ± 1.5 | 46.6 ± 5.5 | 2740 ± 240 | 58.8 ± 0.17 | 4.2 | 21.6 ± 1.4 | 21.3 ± 1.1 | 
B1 |  |  |  |  |  |  |  |  |  |  | 55

Reference: article PMC5966831 (Biochemistry, 2013)
